What was measured:
TNF-alpha = TNF-alpha Quantification Assay (ELISA), LPS-stimulated RAW 264.7; format: cell-based; settings: Mus musculus, RAW264.7; at 10 μM; read-out: TNFα: % inh.
Erk1/2 phosphorylation = test: Erk1/2 Phosphorylation Assay (western blot), Panc-1; format: cell-based, human; settings: at 10 μM, * = activation
Procedure, shortened: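 Phospho-Erk1/2 (Thr202/Tyr204) was detected by western blot in lysates of Panc-1 cells (KRas G12D). These had 6 h, 37° C exposure to 10 μM compound or a dilution series for IC50, in 0.3% DMSO. Cells were either starved overnight in 0.5% FBS with a 15-min 1.5 ng/ml EGF pulse, or kept unstimulated in 10% FBS.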

Akt phosphorylation = test: Akt Phosphorylation Assay (western blot), Panc-1; format: cell-based, human; settings: at 10 μM, * = activation
Procedure, shortened: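 Phospho-Akt (Ser473) was measured by western blot in lysates of KRas G12D Panc-1 cells exposed to test compound for 6 h at 37 °C, either at 10 μM final with 0.3% DMSO or as serial dilutions for IC50. One format used overnight 0.5% FBS starvation followed by a 15 min pulse of 1.5 ng/ml EGF. The other used cells in 10% FBS with no stimulation.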

In the case of COC1CCCN(c2nc(-c3ccccn3)nn3cc(-c4ccn(C(C)C)n4)c(-c4ccccc4)c23)C1 (racemic) [Compound 27, rac 6-(1-Isopropyl-1H-pyrazol-3-yl)-4-(3-methoxypiperidin-1-yl)-5-phenyl-2-(pyridin-2-yl)pyrrolo[2,1-f][1,2,4]triazine], the inhibition at 10 µM (TNF-alpha) is reported as 25 to 49%, the “% inh of Erk1/2 phosphorylation in Panc-1” value (Erk1/2 phosphorylation) is reported as 0 (0% inhibition) and the “% inh of Akt phosphorylation in Panc-1” value (Akt phosphorylation) is reported as “A* (1-25% activation)”.

For Cc1c(-c2ccn(C(C)C)n2)cn2nc(-c3nccn3C)nc(Nc3nc(C4CC4)no3)c12 [Compound 70, 3-Cyclopropyl-N-(6-(1-isopropyl-1H-pyrazol-3-yl)-5-methyl-2-(1-methyl-1H-imidazol-2-yl)pyrrolo[2,1-f][1,2,4]triazin-4-yl)-1,2,4-oxadiazol-5-amine], the inhibition at 10 µM (TNF-alpha) was 1 to 24%, the “% inh of Erk1/2 phosphorylation in Panc-1” value (Erk1/2 phosphorylation) was “B* (26-49% activation)” and the “% inh of Akt phosphorylation in Panc-1” value (Akt phosphorylation) was “C* (46-84% activation)”.

In the case of COc1cc(Nc2nc(-c3nccn3C)nn3cc(-c4ccn(C)n4)c(C)c23)nn1C [Compound 253, N-(5-Methoxy-1-methyl-1H-pyrazol-3-yl)-5-methyl-2-(1-methyl-1H-imidazol-2-yl)-6-(1-methyl-1H-pyrazol-3-yl)pyrrolo[2,1-f][1,2,4]triazin-4-amine], the inhibition at 10 µM (TNF-alpha) is reported as 0%, the “% inh of Erk1/2 phosphorylation in Panc-1” value (Erk1/2 phosphorylation) is reported as “C* (46-84% activation)” and the “% inh of Akt phosphorylation in Panc-1” value (Akt phosphorylation) is reported as “D* (85-100% activation)”.

Cc1c(-c2ccn(C(C)C)n2)cn2nc(-c3nccn3C)nc(Nc3ccccn3)c12 [Compound 57, 6-(1-Isopropyl-1H-pyrazol-3-yl)-5-methyl-2-(1-methyl-1H-imidazol-2-yl)-N-(pyridin-2-yl)pyrrolo[2,1-f][1,2,4]triazin-4-amine] was tested, and the inhibition at 10 µM (TNF-alpha) was 0%, the “% inh of Erk1/2 phosphorylation in Panc-1” value (Erk1/2 phosphorylation) was “A* (1-25% activation)” and the “% inh of Akt phosphorylation in Panc-1” value (Akt phosphorylation) was “D* (85-100% activation)”.

For Cc1c(-c2ccn(C)n2)cn2nc(-c3nccn3C)nc(Nc3cc(-c4cccnc4)ccn3)c12 [Compound 250, N-([3,4′-Bipyridin]-2′-yl)-5-methyl-2-(1-methyl-1H-imidazol-2-yl)-6-(1-methyl-1H-pyrazol-3-yl)pyrrolo[2,1-f][1,2,4]triazin-4-amine], the inhibition at 10 µM (TNF-alpha) was 50 to 74%, the “% inh of Erk1/2 phosphorylation in Panc-1” value (Erk1/2 phosphorylation) was “C* (46-84% activation)” and the “% inh of Akt phosphorylation in Panc-1” value (Akt phosphorylation) was “D* (85-100% activation)”.

In the case of CO[C@H]1CC[C@@H](Nc2nc(-c3nccn3C)nn3cc(-c4ccn(C(C)C)n4)c(C(C)C)c23)C1 (racemic) [Compound 36, rac 5-Isopropyl-6-(1-isopropyl-1H-pyrazol-3-yl)-N-((1R,3S)-3-methoxycyclopentyl)-2-(1-methyl-1H-imidazol-2-yl)pyrrolo[2,1-f][1,2,4]triazin-4-amine], the inhibition at 10 µM (TNF-alpha) is reported as 1 to 24%, the “% inh of Erk1/2 phosphorylation in Panc-1” value (Erk1/2 phosphorylation) is reported as “C (50-84% inhibition)” and the “% inh of Akt phosphorylation in Panc-1” value (Akt phosphorylation) is reported as 0 (0% inhibition).

For Cc1c(-c2ccn(C)n2)cn2nc(-c3nccn3C)nc(Nc3ccc(N4CCOCC4)cn3)c12 [Compound 247, 5-Methyl-2-(1-methyl-1H-imidazol-2-yl)-6-(1-methyl-1H-pyrazol-3-yl)-N-(5-morpholinopyridin-2-yl)pyrrolo[2,1-f][1,2,4]triazin-4-amine], the inhibition at 10 µM (TNF-alpha) was 50 to 74%, the “% inh of Erk1/2 phosphorylation in Panc-1” value (Erk1/2 phosphorylation) was “D* (85-100% activation)” and the “% inh of Akt phosphorylation in Panc-1” value (Akt phosphorylation) was “D* (85-100% activation)”.

COc1cc(Nc2nc(-c3nccn3C)nn3cc(-c4ccn(C)n4)c(C)c23)n[nH]1 [Compound 252, N-(5-Methoxy-1H-pyrazol-3-yl)-5-methyl-2-(1-methyl-1H-imidazol-2-yl)-6-(1-methyl-1H-pyrazol-3-yl)pyrrolo[2,1-f][1,2,4]triazin-4-amine] was tested, and the inhibition at 10 µM (TNF-alpha) was 0%, the “% inh of Erk1/2 phosphorylation in Panc-1” value (Erk1/2 phosphorylation) was “A* (1-25% activation)” and the “% inh of Akt phosphorylation in Panc-1” value (Akt phosphorylation) was “D* (85-100% activation)”.

With Cc1c(-c2ccn(C(C)C)n2)cn2nc(-c3nccn3C)nc(Nc3nnco3)c12 [Compound 59, N-(6-(1-Isopropyl-1H-pyrazol-3-yl)-5-methyl-2-(1-methyl-1H-imidazol-2-yl)pyrrolo[2,1-f][1,2,4]triazin-4-yl)-1,3,4-oxadiazol-2-amine] the inhibition at 10 µM (TNF-alpha) was 1 to 24%, the “% inh of Erk1/2 phosphorylation in Panc-1” value (Erk1/2 phosphorylation) was “C (50-84% inhibition)” and the “% inh of Akt phosphorylation in Panc-1” value (Akt phosphorylation) was “C* (46-84% activation)”.

For COc1cccc(-c2cn3nc(-c4nccn4C)nc(N[C@@H]4CC[C@H]4OC)c3c2-c2ccccc2)c1C (racemic) [Compound 272, rac 6-(3-Methoxy-2-methylphenyl)-N-((1R,2R)-2-methoxycyclobutyl)-2-(1-methyl-1H-imidazol-2-yl)-5-phenylpyrrolo[2,1-f][1,2,4]triazin-4-amine], the inhibition at 10 µM (TNF-alpha) was 75 to 100%, the “% inh of Erk1/2 phosphorylation in Panc-1” value (Erk1/2 phosphorylation) was “D (85-100% inhibition)” and the “% inh of Akt phosphorylation in Panc-1” value (Akt phosphorylation) was “D (85-100% inhibition)”.

With COc1cc(Nc2nc(-c3nccn3C)nn3cc(-c4ccn(C)n4)c(C)c23)ncn1 [Compound 63, N-(6-Methoxypyrimidin-4-yl)-5-methyl-2-(1-methyl-1H-imidazol-2-yl)-6-(1-methyl-1H-pyrazol-3-yl)pyrrolo[2,1-f][1,2,4]triazin-4-amine] the inhibition at 10 µM (TNF-alpha) was 1 to 24%, the “% inh of Erk1/2 phosphorylation in Panc-1” value (Erk1/2 phosphorylation) was “A (1-25% inhibition)” and the “% inh of Akt phosphorylation in Panc-1” value (Akt phosphorylation) was “D* (85-100% activation)”.

Cc1cc(Nc2nc(-c3nccn3C)nn3cc(-c4ccn(C)n4)c(C)c23)n[nH]1 [Compound 255, 5-Methyl-2-(1-methyl-1H-imidazol-2-yl)-6-(1-methyl-1H-pyrazol-3-yl)-N-(5-methyl-1H-pyrazol-3-yl)pyrrolo[2,1-f][1,2,4]triazin-4-amine] was tested, and the inhibition at 10 µM (TNF-alpha) was 1 to 24%, the “% inh of Erk1/2 phosphorylation in Panc-1” value (Erk1/2 phosphorylation) was “A (1-25% inhibition)” and the “% inh of Akt phosphorylation in Panc-1” value (Akt phosphorylation) was “D* (85-100% activation)”.

COc1cccc(Nc2nc(-c3nccn3C)nn3ccc(C)c23)n1 [Compound 38, N-(6-Methoxypyridin-2-yl)-5-methyl-2-(1-methyl-1H-imidazol-2-yl)pyrrolo[2,1-f][1,2,4]triazin-4-amine] was tested, and the inhibition at 10 µM (TNF-alpha) was 1 to 24%, the “% inh of Erk1/2 phosphorylation in Panc-1” value (Erk1/2 phosphorylation) was 0 (0% inhibition) and the “% inh of Akt phosphorylation in Panc-1” value (Akt phosphorylation) was 0 (0% inhibition).

In the case of Cc1c(-c2ccn(C)n2)cn2nc(-c3nccn3C)nc(Nc3cc(C(C)C)[nH]n3)c12 [Compound 268, N-(5-Isopropyl-1H-pyrazol-3-yl)-5-methyl-2-(1-methyl-1H-imidazol-2-yl)-6-(1-methyl-1H-pyrazol-3-yl)pyrrolo[2,1-f][1,2,4]triazin-4-amine], the inhibition at 10 µM (TNF-alpha) is reported as 25 to 49%, the “% inh of Erk1/2 phosphorylation in Panc-1” value (Erk1/2 phosphorylation) is reported as “D* (85-100% activation)” and the “% inh of Akt phosphorylation in Panc-1” value (Akt phosphorylation) is reported as “D* (85-100% activation)”.

With COc1cc(Nc2nc(-c3nccn3C)nn3cc(-c4ccncc4)c(C)c23)ncn1 [Compound 49, N-(6-Methoxypyrimidin-4-yl)-5-methyl-2-(1-methyl-1H-imidazol-2-yl)-6-(pyridin-4-yl)pyrrolo[2,1-f][1,2,4]triazin-4-amine] the inhibition at 10 µM (TNF-alpha) was 1 to 24%, the “% inh of Erk1/2 phosphorylation in Panc-1” value (Erk1/2 phosphorylation) was “B* (26-49% activation)” and the “% inh of Akt phosphorylation in Panc-1” value (Akt phosphorylation) was “D* (85-100% activation)”.

With Cc1c(-c2ccn(C(C)C)n2)cn2nc(-c3nccn3C)nc(Nc3ncccn3)c12 [Compound 54, 6-(1-Isopropyl-1H-pyrazol-3-yl)-5-methyl-2-(1-methyl-1H-imidazol-2-yl)-N-(pyrimidin-2-yl)pyrrolo[2,1-f][1,2,4]triazin-4-amine] the inhibition at 10 µM (TNF-alpha) was 1 to 24%, the “% inh of Erk1/2 phosphorylation in Panc-1” value (Erk1/2 phosphorylation) was “C (50-84% inhibition)” and the “% inh of Akt phosphorylation in Panc-1” value (Akt phosphorylation) was “B* (26-49% activation)”.

For COCC1CCN(c2nc(-c3ccccn3)nn3cc(-c4ccn(C(C)C)n4)c(-c4ccccc4)c23)C1 (racemic) [Compound 25, rac 6-(1-Isopropyl-1H-pyrazol-3-yl)-4-(3-(methoxymethyl)pyrrolidin-1-yl)-5-phenyl-2-(pyridin-2-yl)pyrrolo[2,1-f][1,2,4]triazine], the inhibition at 10 µM (TNF-alpha) was 1 to 24%, the “% inh of Erk1/2 phosphorylation in Panc-1” value (Erk1/2 phosphorylation) was 0 (0% inhibition) and the “% inh of Akt phosphorylation in Panc-1” value (Akt phosphorylation) was “D (85-100% inhibition)”.

In the case of COc1cccc(-c2cn3nc(-c4nccn4C)nc(N[C@@H]4CC[C@@H](OC)C4)c3c2-c2ccccc2)c1F (racemic) [Compound 43, rac 6-(2-Fluoro-3-methoxyphenyl)-N-((1R,3R)-3-methoxycyclopentyl)-2-(1-methyl-1H-imidazol-2-yl)-5-phenylpyrrolo[2,1-f][1,2,4]triazin-4-amine], the inhibition at 10 µM (TNF-alpha) is reported as 1 to 24%, the “% inh of Erk1/2 phosphorylation in Panc-1” value (Erk1/2 phosphorylation) is reported as “D (85-100% inhibition)” and the “% inh of Akt phosphorylation in Panc-1” value (Akt phosphorylation) is reported as “B (26-49% inhibition)”.

In the case of COc1ccc(F)c(-c2cn3nc(-c4nccn4C)nc(N[C@H]4C[C@H](OC)C4)c3c2-c2ccccc2)c1F [Compound 273, 6-(2,6-Difluoro-3-methoxyphenyl)-N-((1r,3r)-3-methoxycyclobutyl)-2-(1-methyl-1H-imidazol-2-yl)-5-phenylpyrrolo[2,1-f][1,2,4]triazin-4-amine], the inhibition at 10 µM (TNF-alpha) is reported as 75 to 100%, the “% inh of Erk1/2 phosphorylation in Panc-1” value (Erk1/2 phosphorylation) is reported as “D (85-100% inhibition)” and the “% inh of Akt phosphorylation in Panc-1” value (Akt phosphorylation) is reported as “D (85-100% inhibition)”.

Reference: patent US12459951B2, “Compounds that interact with RAS superfamily proteins for treatment of cancers, inflammatory diseases, rasopathies, and fibrotic disease” (SHY Therapeutics, LLC, priority 2022, dated 2025)
